In BindingDB's records for doi:10.7270/Q23F4N3R (Burnham Center For Chemical Genomics, 2011):

Test: hexokinase 1 inhibition, dose response, selectivity assay for HKDC1 inhibitor project, biochemical (AID 504763)
Conditions: not given

Q: For `CC(OC(=O)c1cc(O)c2ccccc2c1O)C(=O)Nc1ccc(C(N)=O)cc1` (stereo not drawn) [[1-[(4-aminocarbonylphenyl)amino]-1-oxidanylidene-propan-2-yl] 1,4-bis(oxidanyl)naphthalene-2-carboxylate], which IC50 is on record?
A: Its IC50 is greater than 80 µM.

Q: For `Cc1cc(C(F)F)n2ncc(C(=O)NCCc3ccc(Cl)cc3)c2n1` [N-[2-(4-chlorophenyl)ethyl]-7-(difluoromethyl)-5-methylpyrazolo[1,5-a]pyrimidine-3-carboxamide], which IC50 is on record?
A: The IC50 was 9.04 µM.

Q: Which IC50 does the source give for `O=C1C(Nc2ccc(O)cc2)=CC(=NS(=O)(=O)c2cccs2)c2ccccc21` [MLS000775432] here?
A: Its IC50 is 6.28 µM.

Q: With `Cc1cc(C)n2cc(CSc3nnc(-c4ccccc4)c(-c4ccccc4)n3)nc2n1` [2-[(5,6-diphenyl-1,2,4-triazin-3-yl)sulfanylmethyl]-5,7-dimethyl-imidazo[1,2-a]pyrimidine] as the compound, how does the IC50 read?
A: The IC50 was 11.4 µM.

Q: With `COC1=CC(=O)C(OC)=C(OC)C1=O` [SMR001527280] as the compound, how does the IC50 read?
A: The IC50 was 6.46 µM.

Q: With `COC(=O)C[C@]1(C(=O)OC)CN(C#N)N(c2ccc(Cl)cc2)C12c1ccccc1-c1ccccc12` [methyl 1-(4-chlorophenyl)-2-cyano-4-(2-methoxy-2-oxoethyl)spiro[pyrazolidine-5,9'-(9'H)-fluorene]-4-carboxylate] as the compound, how does the IC50 read?
A: Its IC50 is greater than 80 µM.

Q: Which IC50 does the source give for `CC(=O)NC1C(=O)N(CCN2CCOCC2)c2ccc(C)cc21` (stereo not drawn) [N-[5-methyl-1-(2-morpholin-4-ylethyl)-2-oxidanylidene-3H-indol-3-yl]ethanamide] here?
A: Its IC50 is greater than 80 µM.

Q: Which IC50 does the source give for `CC(C)c1nc2oc3c(NCC4CCCO4)ncnc3c2c2c1COC(C)(C)C2` (stereo not drawn) [MLS000084034] here?
A: Its IC50 is 2.36 µM.

Q: Which IC50 does the source give for `CCc1ccc(S(=O)(=O)N=C2C=C(Nc3cccc(C(=O)O)c3)C(=O)c3ccccc32)cc1` [SMR000620248] here?
A: Its IC50 is 5.83 µM.

Q: For `Cc1cc(Oc2ccc(C(C)(C)C)cc2)nc(N2CCOCC2)n1` [4-[4-(4-tert-butylphenoxy)-6-methylpyrimidin-2-yl]morpholine], which IC50 is on record?
A: Its IC50 is greater than 80 µM.

Q: Which IC50 does the source give for `Cc1cc2cc(CCNC(=O)c3ccc(S(=O)(=O)N4CCCC4)cc3)c(O)nc2cc1C` [N-[2-(6,7-dimethyl-2-oxo-1H-quinolin-3-yl)ethyl]-4-pyrrolidin-1-ylsulfonylbenzamide] here?
A: The IC50 was 15 µM.

Q: Which IC50 does the source give for `O=C(NC1=C(NC2CCS(=O)(=O)C2)C(=O)c2ccccc2C1=O)c1ccccc1` (stereo not drawn) [N-[3-[(1,1-dioxo-3-thiolanyl)amino]-1,4-dioxo-2-naphthalenyl]benzamide] here?
A: The IC50 was 6.33 µM.

Q: Which IC50 does the source give for `CCOC(=O)c1c(-n2c(C)cc(C=C3C(=O)NC(=S)NC3=O)c2C)sc2c1CCCC2` [ethyl 2-{3-[(4,6-dioxo-2-thioxotetrahydro-5(2H)-pyrimidinylidene)methyl]-2,5-dimethyl-1H-pyrrol-1-yl}-4,5,6,7-tetrahydro-1-benzothiophene-3-carboxylate] here?
A: The IC50 was greater than 80 µM.

Q: With `COc1cc(C2c3c([nH]c(=O)[nH]c3=O)Nc3ccc4ccccc4c32)cc(OC)c1OC` (stereo not drawn) [MLS000663320] as the compound, how does the IC50 read?
A: The IC50 was greater than 80 µM.

Q: For `Cc1cc(C)c(S(=O)(=O)Nc2cc(SCC(=O)O)c(O)c3ccccc23)cc1C` [2-[1-hydroxy-4-[(2,4,5-trimethylphenyl)sulfonylamino]naphthalen-2-yl]sulfanylacetic acid], which IC50 is on record?
A: Its IC50 is 14.2 µM.

Q: With `CCC(c1ccccc1)C(CC)c1cc(O)c(O)c(O)c1` (stereo not drawn) [5-(4-phenylhexan-3-yl)benzene-1,2,3-triol] as the compound, how does the IC50 read?
A: Its IC50 is greater than 80 µM.

Q: Which IC50 does the source give for `Cc1cc(C)n2nc(SCc3nnc(SCc4ccccc4C)s3)nc2n1` [5,7-dimethyl-2-[({5-[(2-methylbenzyl)sulfanyl]-1,3,4-thiadiazol-2-yl}methyl)sulfanyl][1,2,4]triazolo[1,5-a]pyrimidine] here?
A: Its IC50 is 3.71 µM.

Q: Which IC50 does the source give for `Cc1cccc(N2C(=O)NC(=O)C(=Cc3ccc4c(c3)CCCN4Cc3ccccc3)C2=O)c1` [5-[1-(1-Benzyl-1,2,3,4-tetrahydro-quinolin-6-yl)-meth-(E)-ylidene]-1-m-tolyl-pyrimidine-2,4,6-trione] here?
A: The IC50 was greater than 80 µM.

Q: With `O=C(C1=C(c2ccccc2)C(=O)c2ccccc2C1=O)c1ccccc1` [2-benzoyl-3-phenylnaphthoquinone] as the compound, how does the IC50 read?
A: Its IC50 is 7.24 µM.

Q: Which IC50 does the source give for `CCc1ccc(S(=O)(=O)N=C2C=C(Sc3nnc[nH]3)C(=O)c3ccccc32)cc1` here?
A: Its IC50 is 2.85 µM.

Q: With `Cc1ccc(-n2c3nc(=O)[nH]c(=O)c-3cc3cc([N+](=O)[O-])ccc32)cc1` [10-(4-methylphenyl)-7-nitropyrimido[4,5-b]quinoline-2,4-dione] as the compound, how does the IC50 read?
A: The IC50 was 19.4 µM.

Q: With `O=C(CSc1nnc(CCCN2C(=O)c3cccc4cccc(c34)C2=O)n1-c1ccccc1)N1CCCCC1` as the compound, how does the IC50 read?
A: Its IC50 is 9.74 µM.

Q: With `Cc1cc2nnc(SCC(=O)Nc3cc(S(=O)(=O)N4CCOCC4)ccc3Cl)n2c2ccccc12` [N-(2-chloro-5-morpholin-4-ylsulfonylphenyl)-2-[(5-methyl-[1,2,4]triazolo[4,3-a]quinolin-1-yl)sulfanyl]acetamide] as the compound, how does the IC50 read?
A: Its IC50 is 18 µM.

Q: With `Cc1ccccc1NC1=CC(=NS(=O)(=O)c2ccc(C(=O)O)cc2)c2ccccc2C1=O` [4-[(E)-[3-(2-methylanilino)-4-oxonaphthalen-1-ylidene]amino]sulfonylbenzoic acid] as the compound, how does the IC50 read?
A: Its IC50 is 2.84 µM.

Q: With `Cc1ccc(N2C(=O)NC(=O)C(=Cc3cc(C)n(-c4sc5c(c4C#N)CCCC5)c3C)C2=O)cc1` as the compound, how does the IC50 read?
A: The IC50 was greater than 80 µM.

Q: Which IC50 does the source give for `O=C1C=C(c2c(O)ccc3ccccc23)c2ccccc2C1=O` [4-(2-hydroxy-1-naphthalenyl)naphthalene-1,2-dione] here?
A: Its IC50 is 5.1 µM.

Q: For `Cc1cc(C=C2C(=O)NC(=O)N(c3ccc(Cl)cc3)C2=O)c(C)n1-c1sc2c(c1C#N)CCCC2` [SMR000211212], which IC50 is on record?
A: The IC50 was greater than 80 µM.

Q: Which IC50 does the source give for `CC(C)c1ccc(S(=O)(=O)N=C2C=C(Sc3nnc[nH]3)C(=O)c3ccccc32)cc1` [4-isopropyl-N-[(1Z)-4-oxo-3-(1H-1,2,4-triazol-3-ylthio)naphthalen-1(4H)-ylidene]benzenesulfonamide] here?
A: Its IC50 is 5.87 µM.

Q: With `CCOC(=O)C1=C(c2ccc(OC)cc2)C(=O)c2ccccc2C1=O` [SMR000185036] as the compound, how does the IC50 read?
A: Its IC50 is 2.44 µM.

Q: With `O=C1C=C(Nc2ccccc2C(=O)O)c2ccccc2C1=O` [SMR000123743] as the compound, how does the IC50 read?
A: Its IC50 is 16.9 µM.

Q: For `N=C(NCc1ccc2c(c1)OCO2)NC(=O)c1ccccc1` [SMR000293067], which IC50 is on record?
A: The IC50 was greater than 80 µM.

Q: Which IC50 does the source give for `Cc1ccc(SC2=C(N(C)C)C(=O)c3ccccc3C2=O)cc1` [2-(dimethylamino)-3-[(4-methylphenyl)thio]naphthalene-1,4-dione] here?
A: The IC50 was 19.7 µM.

Q: For `O=C(/C=C/c1ccco1)NCC(=O)NNC1=c2ccccc2=NC1=O` [MLS001075666], which IC50 is on record?
A: Its IC50 is greater than 80 µM.

Q: For `O=C1C(Cl)=C(N2CCC(C(=O)O)CC2)C(=O)c2ccccc21` [1-(3-chloro-1,4-dioxo-2-naphthalenyl)-4-piperidinecarboxylic acid], which IC50 is on record?
A: The IC50 was 13.5 µM.

Q: With `O=C1NC(=S)N(c2ccc(F)cc2)C(=O)C1=Cc1ccoc1` [SMR000270574] as the compound, how does the IC50 read?
A: Its IC50 is greater than 80 µM.

Q: For `CC(C)c1nc2oc3c(O)ncnc3c2c2c1COC(C)(C)C2` [MLS000779024], which IC50 is on record?
A: Its IC50 is 5.26 µM.

Q: With `Cc1nc([N+](=O)[O-])c(Br)n1CC(=O)c1ccc2ccccc2c1` [2-(5-bromanyl-2-methyl-4-nitro-imidazol-1-yl)-1-naphthalen-2-yl-ethanone] as the compound, how does the IC50 read?
A: Its IC50 is greater than 80 µM.

Q: Which IC50 does the source give for `O=C1C=C(N2CCCCC2)c2ccccc2C1=O` [4-piperidin-1-ylnaphthalene-1,2-dione] here?
A: The IC50 was 2.39 µM.

Q: With `Cc1ccc(C)c(S(=O)(=O)Nc2cc(SCC(=O)O)c(O)c3ccccc23)c1` [2-[4-[(2,5-dimethylphenyl)sulfonylamino]-1-hydroxynaphthalen-2-yl]sulfanylacetic acid] as the compound, how does the IC50 read?
A: Its IC50 is 16.4 µM.

Q: With `O=Cc1[nH]c2ccccc2c1N(C(=O)CCl)c1ccccc1` [MLS001029456] as the compound, how does the IC50 read?
A: The IC50 was greater than 80 µM.

Q: For `Cc1[nH]c2c(=O)c3c(c(=O)c=2[nH]c1C)C1C=CC3CC1` [MLS002701599], which IC50 is on record?
A: Its IC50 is 2.08 µM.

Q: With `O=C1C=C(NCc2ccccc2)c2ccccc2C1=O` [SMR000282064] as the compound, how does the IC50 read?
A: The IC50 was 1.9 µM.

Q: For `O=C(O)c1cc(N2N=C(C(F)(F)F)/C(=C/C=C/c3ccco3)C2=O)ccc1Cl` [2-chloro-5-[4-[3-(2-furyl)-2-propenylidene]-5-oxo-3-(trifluoromethyl)-4,5-dihydro-1H-pyrazol-1-yl]benzoic acid], which IC50 is on record?
A: Its IC50 is greater than 80 µM.

Q: Which IC50 does the source give for `O=C(O)c1ccccc1-c1c2cc(I)c(=O)c(I)c-2oc2c(I)c(O)c(I)cc12` [sodium;2-(2,4,5,7-tetraiodo-3-oxido-6-oxo-9-xanthenyl)benzoate] here?
A: The IC50 was 47.2 µM.

Q: Which IC50 does the source give for `C=c1c(NC(C)=O)c(O)c2nc3n(c2c1O)CCC=3OC(=O)COC` [SMR001565176] here?
A: Its IC50 is 2.15 µM.

Q: For `COC(=O)C1CN(C#N)N(c2ccc(Cl)cc2)C12c1ccccc1-c1ccccc12` (stereo not drawn) [2'-(4-chlorophenyl)-1'-cyano-4'-spiro[fluorene-9,3'-pyrazolidine]carboxylic acid methyl ester], which IC50 is on record?
A: The IC50 was greater than 80 µM.

Q: With `O=C1C=CC(=O)C(C2=C3C(=O)N(CCc4ccccc4)CC(=O)N3CCC2)=C1` [SMR000226463] as the compound, how does the IC50 read?
A: Its IC50 is 6.85 µM.

Same assay, conditions: inactive by the depositor's call

Q: For `Cc1nc(COC(=O)c2cc(O)c3ccccc3c2O)cs1` [(2-methyl-1,3-thiazol-4-yl)methyl 1,4-bis(oxidanyl)naphthalene-2-carboxylate], which IC50 is on record?
A: Its IC50 is 25 µM.

Q: Which IC50 does the source give for `O=C1C(Cl)=C(NC(=O)c2ccccc2)C(=O)C(Cl)=C1NC(=O)c1ccccc1` [N-[4-benzamido-2,5-bis(chloranyl)-3,6-bis(oxidanylidene)cyclohexa-1,4-dien-1-yl]benzamide] here?
A: Its IC50 is 39.2 µM.

Q: With `Nc1ccc(S(=O)(=O)c2cc(O)c3ccccc3c2O)cc1` [SMR001570953] as the compound, how does the IC50 read?
A: Its IC50 is 59.9 µM.

Q: For `Cc1cc(C)n2nc(SCc3nnc(SCc4ccccc4Cl)s3)nc2n1`, which IC50 is on record?
A: The IC50 was 23.2 µM.

Q: For `COC(=O)c1ccc(NCc2cc(O)ccc2O)cc1` [4-[(2,5-dihydroxyphenyl)methylamino]benzoic acid methyl ester], which IC50 is on record?
A: Its IC50 is 21.3 µM.

Q: Which IC50 does the source give for `CCN(CC)c1ccc2c(c1)oc(=O)c1c(Cl)cc(=O)oc12` [4-chloranyl-8-(diethylamino)pyrano[3,2-c]chromene-2,5-dione] here?
A: Its IC50 is 55.4 µM.

Q: With `COc1ccc(S(=O)(=O)Nc2cc(SCC(=O)O)c(O)c3ccccc23)cc1` [[(1-hydroxy-4-{[(4-methoxyphenyl)sulfonyl]amino}-2-naphthyl)thio]acetic acid] as the compound, how does the IC50 read?
A: Its IC50 is 63.3 µM.

Q: With `COc1ccc(C(=O)c2coc3c2C(=O)C(=O)c2ccccc2-3)cc1` [3-(4-Methoxy-benzoyl)-naphtho[1,2-b]furan-4,5-dione] as the compound, how does the IC50 read?
A: Its IC50 is 27.2 µM.

Q: Which IC50 does the source give for `CCCc1nc2oc3c(NCC4CCCO4)ncnc3c2c2c1COC(C)(C)C2` (stereo not drawn) [MLS000042555] here?
A: The IC50 was 31.6 µM.

Q: Which IC50 does the source give for `Cc1ccc(C(=O)c2c(C)oc3c2C(=O)C(=O)c2ccccc2-3)cc1` [2-Methyl-3-(4-methyl-benzoyl)-naphtho[1,2-b]furan-4,5-dione] here?
A: Its IC50 is 21.5 µM.

Q: With `COc1cc2c(cc1OC)-c1cc(NCc3ccccn3)nc(=O)n1CC2` [9,10-dimethoxy-2-(2-pyridinylmethylamino)-6,7-dihydropyrimido[6,1-a]isoquinolin-4-one] as the compound, how does the IC50 read?
A: The IC50 was 67.4 µM.
